Reference: patent US20240158810A1, “COMPOSITIONS AND METHODS FOR AMELIORATING ANTERODORSAL THALAMUS HYPEREXCITABILITY” (The Broad Institute, Inc., priority 2021, published 2024)

Experiments:
PTCHD1 KD mice = experiment: Contextual fear conditioning long-term memory recall test in PTCHD1 KD mice; assay type: in vivo, mouse; settings: PTCHD1 KD mice with hM4Di in AD; low dose of C21 (0.6 mg kg^-1 IP) before CFC training
Description: (§1) The inventors hypothesized that the increased excitability of AD neurons in KD mice may prevent synaptic strengthening during CFC training, which is necessary for efficient encoding. Specifically, in control mice the excitability of AD neurons would increase during training, which leads to strengthening of the AD→RSC circuit, but in KD mice due to the increased excitability of AD neurons before training there will not be the important training-induced increase in excitability and corresponding synaptic strengthening. By recording from AD neurons before and after CFC training in control and KD groups, the inventors obtained experimental evidence to support this idea (FIG. 14G). Without intending to be bound by theory, these findings support a correlation between neuronal hyperexcitability and impairments in long-term potentiation (Speca et al., 2014: Gruter et al., 2015). The inventors next developed a dose-dependent chemogenetic approach to normalize the excitability of AD neurons in KD mice (FIG. 6D).
Chemogenetic and optogenetic experiments. For chemogenetic (i.e., hM4Di or hM3Dq) neuronal activity manipulation experiments, we used the second-generation agonist known as compound 21 (C21). […]
Contextual fear conditioning. […] Since optogenetic manipulations (i.e., optic fibers) interfered with automated motion detection, freezing behavior was manually quantified for all experiments.

AD→RSC circuit = experiment: AMPA/NMDA ratio of the AD→RSC circuit after CFC training in PTCHD1 KD mice; assay type: in vivo, mouse; settings: PTCHD1 KD mice with hM4Di in AD, low dose of C21 (0.6 mg kg^-1 IP)
Description: as §1
(§2) Chemogenetic and optogenetic experiments. For chemogenetic (i.e., hM4Di or hM3Dq) neuronal activity manipulation experiments, we used the second-generation agonist known as compound 21 (C21). This agonist was purchased in a water-soluble dihydrochloride form (Hello Bio). […]

[1] = test system: AD neurons expressing inhibitory DREADDs hM4Di-mCherry; experiment: C21-induced inhibition of hM4Di-expressing AD neuronal firing, ex vivo slice recording; assay type: cell-based, mouse; settings: hM4Di-mCherry expressed in AD, 50 pA step current injection
RSC cFos ensembles = experiment: cFos activation in RSC during CFC training in PTCHD1 KD mice; assay type: in vivo, mouse; settings: PTCHD1 KD mice with hM4Di in AD, low dose of C21 (0.6 mg kg^-1 IP)
[2] = test system: AD neurons of PTCHD1 KD mice; experiment: AD neuronal excitability rescue ex vivo in PTCHD1 KD mice (chemogenetic normalization); parameters: species or system mouse; settings: PTCHD1 KD mice with hM4Di in AD; low dose of C21 (0.6 mg kg^-1 IP), 1 hr before slice preparation
Description: as §1, §2

## Cl.Cl.c1ccc2c(c1)N=C(N1CCNCC1)c1ccccc1N2 [C21]
PTCHD1 KD mice
  LTM recall (CFC): rescued
AD→RSC circuit
  training-induced strengthening of the AD→RSC circuit (AMPA/NMDA ratio): rescued
[1]
  AD neuronal firing: reversibly decreased AD neuronal firing
RSC cFos ensembles
  training-induced CFOS ensemble size in RSC: rescued
[2]
  excitability of AD neurons: returned to physiological levels
